Here are results for 10 molecules from publication PMC10844532, “The in vivo study on antioxidant activity of wendan decoction in treating hyperlipidemia: a pharmacokinetic-pharmacodynamic (PK-PD) model” (Frontiers in Pharmacology, 2024).

Where two headings read alike, the source gives them in different places.

A short description of data set [1]: Plasma pharmacokinetics of 10 WDD components after gavage of WDD (LC-MS/MS, Phoenix NCA and compartment model). It counts as in vivo, SD rats. The settings on record: for AUC(0-t) / Cmax / half-life / Tmax / t1/2: hyperlipidemia rat plasma, non-compartment, n = 6; for Model (optimal PK compartment model): chosen by AIC, Phoenix Model module, rats given WDD. Also on record: Tmax: unit: h. As to the method:
LPO values of all the rats were assessed prior to therapy, and utilized as the baseline. […] Thermo Scientific Hypersil C18 analytical column (particle size: 1.9 µm, length: 100 mm, and diameter: 2.1 mm) was employed. Column operational conditions were like so, column temperature: 30°C, autosampler temperature: 4°C, whereas the flow rate: 0.3 mL/min. Injection volume: 3 μL, and mobile phase: aqueous solution containing 0.1% formic acid aqueous solution (A) and acetonitrile (B). […] Electrospray ion source (ESI) was used for mass spectrometry detection and analysis, both in positive and negative ion patterns. Nitrogen was kept as both of the auxiliary and sheath gas. The capillary temperature was 345°C, the atomizer temperature was 350°C, and the electrospray voltage was 3800 V. The mass spectrometry data for the 10 compounds and the internal standard (IS) are shown in Table 1. After accurately measuring 100 μL of plasma, 10 μL of the QC solution or the IS solution was supplemented, and the blend was vortexed for 30 s. Afterward, 300 μL of acetonitrile (as protein precipitant) was added, vortexed for 1 min, and then centrifuged (10 min at 12000 r/min). Finally, the supernatant was taken and stored for testing. […] The dose, plasma concentration and time after administration were imported into the NCA (Noncompartmental Analysis) module of Phoenix 8.1 to obtain the pharmacokinetic parameters. The Phoenix Model module of Phoenix software was used to establish the atrioventricular model of the drug. Akaike Information Criterion (AIC) rules were used to calculate the optimal PK model.

A further data set deals with HDL. Also on record: method as in Eu et al., 2010. Particulars: ref Eu et al., 2010; cited from earlier work.
In the next data set the test system is hyperlipidemia hamsters. The arrangement: method as in Shi et al., 2023. Particulars: compared with the control group ref Shi et al., 2023; cited from earlier work.
In data set [2] the test system is experimental hyperlipidemia rat models. The arrangement: method as in Kumar et al., 2020. Particulars: experimental hyperlipidemia rat models ref Kumar et al., 2020; cited from earlier work.
The next data set concerns hyperlipidemia mice. The arrangement: method as in Yu et al., 2022. The settings on record: hyperlipidemia mice ref Yu et al., 2022; cited from earlier work.
Another data set deals with plasma lipids. The arrangement: method as in Sahebkar, 2017. Particulars: randomized controlled trials ref Sahebkar, 2017, cited from earlier work.
Setting [3] is: Sprague-Dawley, po, HTG: WDD 6.6 g/100 g by gavage.
Where [4] appears, read: Sprague-Dawley, po, LTG: WDD 2.2 g/100 g by gavage.
The mark [5] stands for this setting: Sprague-Dawley, rat, plasma, po, 2.2 g/100 g, LTG: WDD 2.2 g/100 g by gavage.
[6] abbreviates: Sprague-Dawley, rat, plasma, po, 2.2 g/100 g, LTG: WDD 2.2 g/100 g by gavage, read-out: Tmax.
The mark [7] stands for this setting: Sprague-Dawley, rat, plasma, po, 6.6 g/100 g, HTG: WDD 6.6 g/100 g by gavage.
Setting [8] is: Sprague-Dawley, rat, plasma, po, 6.6 g/100 g, HTG: WDD 6.6 g/100 g by gavage, read-out: Tmax.

For the molecule `CC1(C)[C@@H](O)CC[C@]2(C)[C@H]3C(=O)C=C4[C@@H]5C[C@@](C)(C(=O)O)CC[C@]5(C)CC[C@@]4(C)[C@]3(C)CC[C@@H]12` [Glycyrrhetinic acid], the AUC(0-t) (in general, the area under the concentration-time curve up to a stated or last time point) turned out to be 10200 ± 298 ng·h/mL in data set [1] (setting [3]) and 8180 ± 500 ng·h/mL in data set [1] (setting [4]). Further, the peak concentration (Cmax) (as a rule, the highest concentration seen after dosing) in data set [1] (setting [3]) worked out at 3280 ± 475 ng/mL; in data set [1] (setting [4]) it was 2940 ± 220 ng/mL. The half-life (in general, the time needed for the level to fall by half in the phase considered) is 2.3 ± 0.16 h in data set [1] (setting [5]) and 6.02 ± 0.92 h in data set [1] (setting [7]). Further, the results for the Tmax in data set [1] (setting [6]) and in data set [1] (setting [8]) were 0.75 h and 0.54 ± 0.21 h, respectively. In addition, the “bioavailability (from largest AUC in rat plasma)” value in data set [1] (both doses of WDD) is listed as “good bioavailability”.

With `CC1(C)[C@@H](O[C@H]2O[C@H](C(=O)O)[C@@H](O)[C@H](O)[C@H]2O[C@@H]2O[C@H](C(=O)O)[C@@H](O)[C@H](O)[C@H]2O)CC[C@]2(C)[C@H]3C(=O)C=C4[C@@H]5C[C@@](C)(C(=O)O)CC[C@]5(C)CC[C@@]4(C)[C@]3(C)CC[C@@H]12` [Glycyrrhizic acid], the AUC(0-t) in data set [1] (setting [3]) worked out at 128 ± 5.67 ng·h/mL; in data set [1] (setting [4]), 104 ± 5.97 ng·h/mL. The Cmax turned out to be 45.1 ± 2.3 ng/mL in data set [1] (setting [3]) and 20.6 ± 2.16 ng/mL in data set [1] (setting [4]). The results for the half-life in data set [1] (setting [5]) and in data set [1] (setting [7]) were 10.8 ± 3.88 h and 15.5 ± 7.44 h, respectively. The results for the Tmax in data set [1] (setting [6]) and in data set [1] (setting [8]) were 1.5 h and 0.25 h, respectively. Besides, in data set [1], the “Model (optimal PK compartment model)” value is reported as “One-Compartment Model”. In the data set on HDL, the HDL result was “can increase HDL”.

With `COc1ccc([C@@H]2CC(=O)c3c(O)cc(O)cc3O2)cc1O` [Hesperetin], the time to peak (Tmax) (usually the time at which the peak concentration occurs) in data set [1] (HTG: WDD 6.6 g/100 g by gavage) stood at 0.67 ± 0.17 h; in data set [1] (HTG: WDD 6.6 g/100 g by gavage, listed as hesperetin) it was 0.25 h; in data set [1] (setting [6]), 1.42 ± 0.92 h. Moreover, the t1/2 in data set [1] (HTG: WDD 6.6 g/100 g by gavage) is given as 6.24 ± 0.36 h. For the same molecule, the AUC(0-t) in data set [1] (setting [3]) stood at 3890 ± 147 ng·h/mL; in data set [1] (setting [4]) it was 1030 ± 23.8 ng·h/mL. The Cmax in data set [1] (setting [3]) came to 607 ± 130 ng/mL; in data set [1] (setting [4]), 223 ± 8.19 ng/mL. Also, the half-life is 5.88 ± 3.39 h in data set [1] (setting [5]) and 3.21 h in data set [1] (setting [7]). Besides, in data set [1], the “Model (optimal PK compartment model)” value is given as “One-Compartment Model”. Further, the “body weight, obesity index, serum TC, TG, liver TC, TG and free fatty acid levels” value with hyperlipidemia hamsters was “significantly decreased”.

On to `COc1ccc([C@@H]2CC(=O)c3c(O)cc(O[C@@H]4O[C@H](CO[C@@H]5O[C@@H](C)[C@H](O)[C@@H](O)[C@H]5O)[C@@H](O)[C@H](O)[C@H]4O)cc3O2)cc1O` [Hesperidin], for which the AUC(0-t) in data set [1] (setting [3]) stood at 439 ± 13.3 ng·h/mL; in data set [1] (setting [4]) it was 172 ± 3.26 ng·h/mL. In addition, the figures for the peak concentration (Cmax) in data set [1] (setting [3]) and in data set [1] (setting [4]) were 194 ± 24.3 ng/mL and 34.6 ± 3.22 ng/mL, respectively. The half-life in data set [1] (setting [5]) was 12.1 ± 5.52 h; in data set [1] (setting [7]) it was 4.19 ± 0.17 h. For the same molecule, the Tmax in data set [1] (setting [6]) is 0.67 ± 0.42 h; in data set [1] (setting [8]), 0.75 h. Also, the “Model (optimal PK compartment model)” value in data set [1] was “One-Compartment Model”. Also, the altered redox homeostasis result in data set [2] is on record as “can reduce altered redox homeostasis”.

As for `O=C(/C=C/c1ccc(O)cc1)c1ccc(O)cc1O` [Isoliquiritigenin], the time to peak (Tmax) was 0.79 ± 0.21 h in data set [1] (HTG: WDD 6.6 g/100 g by gavage); 0.25 h in data set [1] (HTG: WDD 6.6 g/100 g by gavage, listed as isoliquiritigenin); 0.5 h in data set [1] (setting [6]). Also, the AUC(0-t) in data set [1] (setting [3]) worked out at 54.9 ± 2.07 ng·h/mL; in data set [1] (setting [4]), 48.5 ± 0.82 ng·h/mL. In addition, the results for the Cmax in data set [1] (setting [3]) and in data set [1] (setting [4]) were 17.8 ± 3.31 ng/mL and 16.2 ± 2.35 ng/mL, respectively. Also, the values for the half-life in data set [1] (setting [5]) and in data set [1] (setting [7]) were 27.4 ± 4.66 h and 14.6 ± 9 h, respectively.

Take `O=C1C[C@@H](c2ccc(O)cc2)Oc2cc(O)cc(O)c21` [Naringenin]: the area under the curve AUC(0-t) worked out at 595 ± 15.4 ng·h/mL in data set [1] (setting [3]) and 587 ± 14.3 ng·h/mL in data set [1] (setting [4]). Also, the Cmax was determined as 139 ± 10.6 ng/mL in data set [1] (setting [3]) and 110 ± 6.8 ng/mL in data set [1] (setting [4]). Besides, the half-life was 12.5 ± 4.08 h in data set [1] (setting [5]) and 11.7 ± 1.94 h in data set [1] (setting [7]). The Tmax in data set [1] (setting [6]) and in data set [1] (setting [8]) was 0.75 h throughout. The “Model (optimal PK compartment model)” value in data set [1] was “One-Compartment Model”.

With `C[C@@H]1O[C@@H](O[C@H]2[C@H](Oc3cc(O)c4c(c3)O[C@H](c3ccc(O)cc3)CC4=O)O[C@H](CO)[C@@H](O)[C@@H]2O)[C@H](O)[C@H](O)[C@H]1O` [Naringin], the results for the AUC(0-t) in data set [1] (setting [3]) and in data set [1] (setting [4]) were 713 ± 46.4 ng·h/mL and 210 ± 12.5 ng·h/mL, respectively. The Cmax in data set [1] (setting [3]) turned out to be 575 ± 17.6 ng/mL; in data set [1] (setting [4]), 36.8 ± 4.99 ng/mL. Also, the half-life is 6.13 ± 0.94 h in data set [1] (setting [5]) and 5 ± 1.27 h in data set [1] (setting [7]). Also, the values for the Tmax in data set [1] (setting [6]) and in data set [1] (setting [8]) were 0.54 ± 0.21 h and 0.25 h, respectively. For the same molecule, the “Model (optimal PK compartment model)” value in data set [1] is “Two-Compartment Model”. Also, the “effect on reducing lipids and protecting liver” value in the data set with hyperlipidemia mice was “strong effect on reducing lipids and protecting liver”.

In data set [1] (HTG: WDD 6.6 g/100 g by gavage), `O=c1c(O)c(-c2ccc(O)c(O)c2)oc2cc(O)cc(O)c12` [Quercetin] had a t1/2 of 7.75 ± 12.99 h. For the same molecule, the Tmax in data set [1] (LTG: WDD 2.2 g/100 g by gavage) was determined as 1.00 ± 0.00 h; in data set [1] (setting [8]), 0.75 h. Also, the figures for the AUC(0-t) in data set [1] (setting [3]) and in data set [1] (setting [4]) were 370 ± 14.7 ng·h/mL and 212 ± 9.39 ng·h/mL, respectively. In addition, the Cmax turned out to be 115 ± 4.83 ng/mL in data set [1] (setting [3]) and 98.4 ± 8.03 ng/mL in data set [1] (setting [4]). In addition, in data set [1] (setting [5]), the half-life is 31.1 ± 41.4 h. Moreover, the “Model (optimal PK compartment model)” value in data set [1] was “Two-Compartment Model”. Besides, the triglycerides result with plasma lipids (doses above 50 mg/day) is given as “significant reduction”. The “effect on plasma lipids” value in the data set with plasma lipids (supplementation) was “does not have any clinically relevant effect”.

Turning to `COc1ccc(-c2cc(=O)c3c(OC)c(OC)c(OC)c(OC)c3o2)cc1` [Tangeretin], the AUC(0-t) in data set [1] (setting [3]) is 22.4 ± 0.89 ng·h/mL; in data set [1] (setting [4]), 10.8 ± 0.32 ng·h/mL. The Cmax was 25.9 ± 2.98 ng/mL in data set [1] (setting [3]) and 6.8 ± 0.46 ng/mL in data set [1] (setting [4]). Moreover, the half-life was 8.83 ± 4.57 h in data set [1] (setting [5]) and 3.21 ± 0.89 h in data set [1] (setting [7]). For the same molecule, the Tmax in data set [1] (setting [6]) turned out to be 0.5 h; in data set [1] (setting [8]), 0.38 ± 0.13 h. In addition, the “Model (optimal PK compartment model)” value in data set [1] was “Two-Compartment Model”.

Turning to `C[n+]1cccc(C(=O)[O-])c1` [Trigonelline], the area under the curve AUC(0-t) was 6010 ± 96.4 ng·h/mL in data set [1] (setting [3]) and 3560 ± 300 ng·h/mL in data set [1] (setting [4]). Also, the maximum concentration (Cmax) stood at 537 ± 7.69 ng/mL in data set [1] (setting [3]) and 388 ± 25.8 ng/mL in data set [1] (setting [4]). In addition, the values for the half-life in data set [1] (setting [5]) and in data set [1] (setting [7]) were 12.2 ± 1.65 h and 11.8 ± 1.81 h, respectively. The results for the Tmax in data set [1] (setting [6]) and in data set [1] (setting [8]) were 1.5 h and 2.67 ± 0.33 h, respectively. Besides, in data set [1], the “Model (optimal PK compartment model)” value is given as “Two-Compartment Model”.
